Tested on: 653999-131-R-J2-PDC complex spheroids, growth % test/control
Assay: Anticancer human tumor 653999-131-R-J2-PDC patient-derived lung adenocarcinoma cell line growth inhibition [AhR]
Conditions: for IC50: curve of first compound; for viability, T/C: stronger effect = lower value
Summary of the method: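 Agents were dosed in half-log steps down from roughly clinical Cmax, or from 10 microM where Cmax was unknown, alone and with AhR antagonists. Read-out: percent test/control growth of tumor spheroids containing HUVEC and MSC stromal cells.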

[1] = second compound 0.1 µM, first compound 0.00949 µM
[2] = second compound 0.1 µM, first compound 0.03 µM
[3] = second compound 0.1 µM, first compound 0.0949 µM
[4] = second compound 0.1 µM, first compound 0.3 µM
[5] = second compound 0.316 µM, first compound 0.00949 µM
[6] = second compound 0.316 µM, first compound 0.03 µM
[7] = second compound 0.316 µM, first compound 0.0949 µM
[8] = second compound 0.316 µM, first compound 0.3 µM
[9] = second compound 1 µM, first compound 0.00949 µM
[10] = second compound 1 µM, first compound 0.03 µM
[11] = second compound 1 µM, first compound 0.0949 µM
[12] = second compound 1 µM, first compound 0.3 µM
[13] = second compound 3.16 µM, first compound 0.00949 µM
[14] = second compound 3.16 µM, first compound 0.03 µM
[15] = second compound 3.16 µM, first compound 0.0949 µM
[16] = second compound 3.16 µM, first compound 0.3 µM
[17] = second compound 10 µM, first compound 0.00949 µM
[18] = second compound 10 µM, first compound 0.03 µM
[19] = second compound 10 µM, first compound 0.0949 µM
[20] = second compound 10 µM, first compound 0.3 µM
[21] = second compound 0.1 µM, first compound 0.0316 µM
[22] = second compound 0.1 µM, first compound 0.1 µM
[23] = second compound 0.1 µM, first compound 0.316 µM
[24] = second compound 0.1 µM, first compound 1 µM
[25] = second compound 0.1 µM, first compound 3.16 µM
[26] = second compound 0.1 µM, first compound 10 µM
[27] = second compound 0.316 µM, first compound 0.0316 µM
[28] = second compound 0.316 µM, first compound 0.1 µM
[29] = second compound 0.316 µM, first compound 0.316 µM
[30] = second compound 0.316 µM, first compound 1 µM
[31] = second compound 0.316 µM, first compound 3.16 µM
[32] = second compound 0.316 µM, first compound 10 µM
[33] = second compound 1 µM, first compound 0.0316 µM
[34] = second compound 1 µM, first compound 0.1 µM
[35] = second compound 1 µM, first compound 0.316 µM
[36] = second compound 1 µM, first compound 1 µM
[37] = second compound 1 µM, first compound 3.16 µM
[38] = second compound 1 µM, first compound 10 µM
[39] = second compound 3.16 µM, first compound 0.0316 µM
[40] = second compound 3.16 µM, first compound 0.1 µM
[41] = second compound 3.16 µM, first compound 0.316 µM
[42] = second compound 3.16 µM, first compound 1 µM
[43] = second compound 3.16 µM, first compound 3.16 µM
[44] = second compound 3.16 µM, first compound 10 µM
[45] = second compound 10 µM, first compound 0.0316 µM
[46] = second compound 10 µM, first compound 0.1 µM
[47] = second compound 10 µM, first compound 0.316 µM
[48] = second compound 10 µM, first compound 1 µM
[49] = second compound 10 µM, first compound 3.16 µM
[50] = second compound 10 µM, first compound 10 µM
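Further: spheroids exposed to agents for seven days.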
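Wherever viability, T/C is given: 100% = DMSO vehicle control viability.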

`O=C(C=Cn1cnc(-c2cc(C(F)(F)F)cc(C(F)(F)F)c2)n1)NNc1cnccn1` + Cc1cncc(-c2nc(NCCc3c[nH]c4ccccc34)c3ncn(C(C)C)c3n2)c1 showed an IC50 (second compound 0.1 µM) of 233 nM, an IC50 (second compound 0.316 µM) of 293 nM and an IC50 (second compound 1 µM) of 514 nM. The IC50 (second compound 3.16 µM) was 376 nM, the IC50 (second compound 10 µM) was 48.5 nM and the viability, T/C [1] was 91.2%. The viability, T/C [2] was 65.8%, the viability, T/C [3] was 62.2% and the viability, T/C [4] was 45.2%. It also gave a viability, T/C (second compound 0.1 µM, first compound 0.949 µM) of 43.8%, a viability, T/C (second compound 0.1 µM, first compound 3 µM) of 38.3% and a viability, T/C [5] of 85%. For the same compound, the viability, T/C [6] was 74%, the viability, T/C [7] was 64.2% and the viability, T/C [8] was 50.3%. For the same compound, the viability, T/C (second compound 0.316 µM, first compound 0.949 µM) was 39.3%, the viability, T/C (second compound 0.316 µM, first compound 3 µM) was 43.1% and the viability, T/C [9] was 95.9%. The viability, T/C [10] was 77.8%, the viability, T/C [11] was 66.4% and the viability, T/C [12] was 50.1%. It also gave a viability, T/C (second compound 1 µM, first compound 0.949 µM) of 48.4%, a viability, T/C (second compound 1 µM, first compound 3 µM) of 42.1% and a viability, T/C [13] of 95.4%. For the same compound, the viability, T/C [14] was 86.7%, the viability, T/C [15] was 74.9% and the viability, T/C [16] was 51.5%. For the same compound, the viability, T/C (second compound 3.16 µM, first compound 0.949 µM) was 40.9%, the viability, T/C (second compound 3.16 µM, first compound 3 µM) was 41% and the viability, T/C [17] was 59.2%. For the same compound, the viability, T/C [18] was 49.8%, the viability, T/C [19] was 52.2% and the viability, T/C [20] was 40%. For the same compound, the viability, T/C (second compound 10 µM, first compound 0.949 µM) was 34.9% and the viability, T/C (second compound 10 µM, first compound 3 µM) was 37.6%.

For `COc1cccc2c1C(=O)c1c(O)c3c(c(O)c1C2=O)CC(O)(C(=O)CO)CC3OC1CC(N)C(O)C(C)O1` (stereo not given) + CC(CO)NC(=O)c1cc(-c2ccc(Cl)cc2)nn(-c2cnn(C)c2)c1=O, the IC50 (second compound 0.1 µM) was 136 nM, the IC50 (second compound 0.316 µM) was 124 nM and the IC50 (second compound 1 µM) was 144 nM. It also gave an IC50 (second compound 3.16 µM) of 167 nM, an IC50 (second compound 10 µM) of 131 nM and a viability, T/C [21] of 60.7%. The viability, T/C [22] was 53%, the viability, T/C [23] was 35% and the viability, T/C [24] was 11.7%. For the same compound, the viability, T/C [25] was 6.06%, the viability, T/C [26] was 19.9% and the viability, T/C [27] was 62.3%. It also gave a viability, T/C [28] of 52.8%, a viability, T/C [29] of 31.1% and a viability, T/C [30] of 10.4%. It also gave a viability, T/C [31] of 4.91%, a viability, T/C [32] of 20.9% and a viability, T/C [33] of 71%. The viability, T/C [34] was 57%, the viability, T/C [35] was 33% and the viability, T/C [36] was 11.2%. The viability, T/C [37] was 4.47%, the viability, T/C [38] was 18.9% and the viability, T/C [39] was 62.9%. For the same compound, the viability, T/C [40] was 49.5%, the viability, T/C [41] was 42.3% and the viability, T/C [42] was 6.87%. For the same compound, the viability, T/C [43] was 7.41%, the viability, T/C [44] was 20.7% and the viability, T/C [45] was 73.4%. The viability, T/C [46] was 54.6%, the viability, T/C [47] was 31.8% and the viability, T/C [48] was 5.67%. It also gave a viability, T/C [49] of 9.25% and a viability, T/C [50] of 21.4%.

With `CC(C)c1c(-c2ccccc2)nc2c(C#N)c[nH]n2c1=O` + CC(CO)NC(=O)c1cc(-c2ccc(Cl)cc2)nn(-c2cnn(C)c2)c1=O the IC50 (second compound 0.1 µM) was over 10000 nM, the IC50 (second compound 0.316 µM) was over 10000 nM and the IC50 (second compound 1 µM) was over 10000 nM. The IC50 (second compound 3.16 µM) was over 10000 nM, the IC50 (second compound 10 µM) was over 10000 nM and the viability, T/C [21] was 104%. For the same compound, the viability, T/C [22] was 105%, the viability, T/C [23] was 99.4% and the viability, T/C [24] was 94.2%. The viability, T/C [25] was 93.3%, the viability, T/C [26] was 90.9% and the viability, T/C [27] was 102%. For the same compound, the viability, T/C [28] was 105%, the viability, T/C [29] was 93.3% and the viability, T/C [30] was 101%. It also gave a viability, T/C [31] of 93.8%, a viability, T/C [32] of 99% and a viability, T/C [33] of 104%. The viability, T/C [34] was 106%, the viability, T/C [35] was 114% and the viability, T/C [36] was 98%. The viability, T/C [37] was 97.9%, the viability, T/C [38] was 95.4% and the viability, T/C [39] was 105%. It also gave a viability, T/C [40] of 108%, a viability, T/C [41] of 123% and a viability, T/C [42] of 93.6%. The viability, T/C [43] was 92.2%, the viability, T/C [44] was 91.9% and the viability, T/C [45] was 104%. It also gave a viability, T/C [46] of 116%, a viability, T/C [47] of 100% and a viability, T/C [48] of 102%. For the same compound, the viability, T/C [49] was 95.4% and the viability, T/C [50] was 96.7%.

`CC(C)CC(NC(=O)C(Cc1ccccc1)NC(=O)c1cnccn1)B(O)O` (stereo not given) + Cc1ccccc1N=Nc1ccc(NC(=O)c2ccnn2C)c(C)c1 gave an IC50 (second compound 0.1 µM) of 20.4 nM, an IC50 (second compound 0.316 µM) of 20.2 nM and an IC50 (second compound 1 µM) of 19.6 nM. It also gave an IC50 (second compound 3.16 µM) of 20.7 nM, an IC50 (second compound 10 µM) of 22.1 nM and a viability, T/C (second compound 0.1 µM, first compound 0.000949 µM) of 103%. For the same compound, the viability, T/C (second compound 0.1 µM, first compound 0.003 µM) was 117%, the viability, T/C [1] was 82.6% and the viability, T/C [2] was 33.1%. For the same compound, the viability, T/C [3] was 12.7%, the viability, T/C [4] was 4.4% and the viability, T/C (second compound 0.316 µM, first compound 0.000949 µM) was 89.7%. For the same compound, the viability, T/C (second compound 0.316 µM, first compound 0.003 µM) was 116%, the viability, T/C [5] was 91% and the viability, T/C [6] was 28.3%. It also gave a viability, T/C [7] of 10.5%, a viability, T/C [8] of 6.14% and a viability, T/C (second compound 1 µM, first compound 0.000949 µM) of 100%. For the same compound, the viability, T/C (second compound 1 µM, first compound 0.003 µM) was 108%, the viability, T/C [9] was 87.6% and the viability, T/C [10] was 27.4%. It also gave a viability, T/C [11] of 14.9%, a viability, T/C [12] of 6.46% and a viability, T/C (second compound 3.16 µM, first compound 0.000949 µM) of 97.6%. For the same compound, the viability, T/C (second compound 3.16 µM, first compound 0.003 µM) was 96.8%, the viability, T/C [13] was 86.7% and the viability, T/C [14] was 31.8%. For the same compound, the viability, T/C [15] was 20.8%, the viability, T/C [16] was 7.43% and the viability, T/C (second compound 10 µM, first compound 0.000949 µM) was 89.1%. For the same compound, the viability, T/C (second compound 10 µM, first compound 0.003 µM) was 98.1%, the viability, T/C [17] was 80% and the viability, T/C [18] was 37.8%. For the same compound, the viability, T/C [19] was 25.2% and the viability, T/C [20] was 11.4%.

`COc1cc(Nc2ncc3c(n2)-c2ccc(Cl)cc2C(c2c(F)cccc2OC)=NC3)ccc1C(=O)O` + Cc1cncc(-c2nc(NCCc3c[nH]c4ccccc34)c3ncn(C(C)C)c3n2)c1 showed an IC50 (second compound 0.1 µM) of over 10000 nM, an IC50 (second compound 0.316 µM) of over 10000 nM and an IC50 (second compound 1 µM) of over 10000 nM. The IC50 (second compound 3.16 µM) was over 10000 nM, the IC50 (second compound 10 µM) was over 10000 nM and the viability, T/C [21] was 82.1%. It also gave a viability, T/C [22] of 75.4%, a viability, T/C [23] of 66.3% and a viability, T/C [24] of 63.3%. The viability, T/C [25] was 58.3%, the viability, T/C [26] was 55.5% and the viability, T/C [27] was 78.7%. The viability, T/C [28] was 67.7%, the viability, T/C [29] was 66.6% and the viability, T/C [30] was 63.2%. For the same compound, the viability, T/C [31] was 60.6%, the viability, T/C [32] was 54.4% and the viability, T/C [33] was 91%. It also gave a viability, T/C [34] of 78.6%, a viability, T/C [35] of 80% and a viability, T/C [36] of 68.2%. For the same compound, the viability, T/C [37] was 61.9%, the viability, T/C [38] was 57.8% and the viability, T/C [39] was 96.7%. The viability, T/C [40] was 86.4%, the viability, T/C [41] was 78.6% and the viability, T/C [42] was 73.4%. It also gave a viability, T/C [43] of 73.1%, a viability, T/C [44] of 64.7% and a viability, T/C [45] of 65.5%. For the same compound, the viability, T/C [46] was 49.9%, the viability, T/C [47] was 57.9% and the viability, T/C [48] was 49.9%. The viability, T/C [49] was 55.5% and the viability, T/C [50] was 64.4%.

Reference: PubChem BioAssay AID1919000 (Molecular Pharmacology Branch, DTP, NCI, 2023)
